Source: patent publication US20250295628A1 (priority 2022, published 2025)

Key:
[1] = Solid stability: main component content over time under storage conditions (Example 15); type: physicochemical
[2] = Compatibility stability and pH of 2 mg/ml solutions in normal saline and 5% glucose injection at room temperature (Example 15); type: physicochemical; conditions: for main component content in solution: 2 mg/ml, room temperature
[3] = Acute toxicity in SD rats (Example 16); type: in vivo; conditions: both sexes, rat, in vivo, 3 g/kg, single intravenous injection, read-out: rat MTD, injected
From the text: (§1) SPF-grade SD rats, 180˜220 g, 70 males and 70 females, were divided into 7 groups, 10 males and 10 females in each group. Rats in group 1 were intravenous injected with 3 g/kg of D3; rats in group 2 were intravenous injected with 3 g/kg of composition 3; rats in group 3 were intravenous injected with 3 g/kg of composition 3-powder injection; rats in group 4 were orally administrated with 5 g/kg of composition 3-enteric-coated granule; rats in group 5 were orally administrated with 5 g/kg of composition 3-enteric-coated capsule; rats in group 6 were orally administrated with 5 g/kg of composition 3-enteric-coated sustained-release capsule; group 7 was a blank group. After administration, the poisoning situation was observed every day, and no obvious poisoning reaction was found.

SD rats = test: Acute toxicity in SD rats (Example 16); type: in vivo; conditions: intravenous 3 g/kg, observed 14 days
From the text: as §1

[4] = Acute toxicity in beagles (Example 16); type: in vivo; conditions: both sexes, beagle, dog, in vivo, 2 g/kg, single intravenous injection, read-out: dog MTD, injected
From the text: (§2) Ordinary grade beagles 8˜10 kg, 70 males and 70 females, were divided into 7 groups, 10 males and 10 females in each group. Beagles in group 1 were intravenous injected with 2 g/kg of D3; beagles in group 2 were intravenous injected with 2 g/kg of composition 3; beagles in group 3 were intravenous injected with 2 g/kg of composition 3-powder injection; beagles in group 4 were orally administrated with 5 g/kg of composition 3-enteric-coated granule; beagles in group 5 were orally administrated with 5 g/kg of composition 3-enteric-coated capsule; beagles in group 6 were orally administrated with 5 g/kg of composition 3-enteric-coated sustained-release capsule; group 7 was a blank group. After administration, the poisoning situation was observed every day, and no obvious poisoning reaction was found.

beagles = test: Acute toxicity in beagles (Example 16); type: in vivo; conditions: intravenous 2 g/kg, observed 14 days
From the text: as §2

[5] = test system: chronic cadmium poisoning model rabbits; test: Cadmium-removing effect by intravenous drip in chronic cadmium poisoning rabbits (Example 18); type: in vivo, New Zealand rabbits; conditions: for Urine β2-microglobulin values: after four weeks of administration
From the text: 205 male New Zealand rabbits, 1.8˜2.2 kg, were randomly divided into a blank control group with 25 rabbits and chronic cadmium poisoning groups with a total of 180 rabbits. The model rabbits were ear margin intravenous injected with a mixed solution containing 1.5 μmol/kg CdCl2 and 30 μmol/kg thioethanol (ME) according to weight, once/d for continuous 5 days, and observed for 35 days. After 35 days, qualified rabbits were selected according to weight, including 18 rabbits in the blank group and 162 rabbits in the poisoning group. The 162 rabbits in the poisoning group were randomly divided into a model group, D3 high-dose group, D3 low-dose group, compound 3B high-dose group, compound 3B low-dose group, composition 3 high-dose group, composition 3 low-dose group, composition 3-powder injection high-dose group, composition 3-powder injection low-dose group, with 18 rabbits in each group. Rabbits in the mode group and the blank group were administered by intravenous drip with the same volume of normal saline, with a rate of 30 drops/min for a dripping time of about 2 h, 1 time/d, 5 d/week. After administration on the last day of week 1, week 2 and week 4, the urine of 0 h˜6 h and the urine of 7 h˜24 h of rabbits were respectively collected; the content of cadmium in blood, urine and kidney, and the cadmium-removing rate from blood and kidney were determined, and the results are shown in Table 6.

[6] = Solid stability of compositions 1-11 and compounds 1A-11A: main component content over time under different conditions (Example 37, Table 32); type: physicochemical
Experimental: Compositions 1-11 and compounds 1A-11A were placed at environments of −25° C., 5±3° C., 25±2° C./60±5% RH, 40±2° C./75±5% RH, 60° C. for 0 d, 5 d and 10 d (d refers to day), respectively, and changes of the main component content (the main component content of 0 day was converted to 100%) were measured, the results are shown in Table 32.

[7] = 1 w of treatment, high-dose group (D3 433, composition 3 and composition 3-preparation 108 mg/kg)
[8] = 1 w of treatment, high-dose group (D3 433, compound 3B 83.5, composition 3 and composition 3-preparation 108 mg/kg)
[9] = 1 w of treatment, low-dose group (D3 108, composition 3 and composition 3-preparation 27 mg/kg)
[10] = 1 w of treatment, low-dose group (D3 108, compound 3B 21, composition 3 and composition 3-preparation 27 mg/kg)
[11] = 2 w of treatment, high-dose group (D3 433, composition 3 and composition 3-preparation 108 mg/kg)
[12] = 2 w of treatment, high-dose group (D3 433, compound 3B 83.5, composition 3 and composition 3-preparation 108 mg/kg)
[13] = 2 w of treatment, low-dose group (D3 108, composition 3 and composition 3-preparation 27 mg/kg)
[14] = 2 w of treatment, low-dose group (D3 108, compound 3B 21, composition 3 and composition 3-preparation 27 mg/kg)
[15] = 4 w of treatment, high-dose group (D3 433, composition 3 and composition 3-preparation 108 mg/kg)
[16] = 4 w of treatment, high-dose group (D3 433, compound 3B 83.5, composition 3 and composition 3-preparation 108 mg/kg)
[17] = 4 w of treatment, low-dose group (D3 108, composition 3 and composition 3-preparation 27 mg/kg)
[18] = 4 w of treatment, low-dose group (D3 108, compound 3B 21, composition 3 and composition 3-preparation 27 mg/kg)

CSCCC(C(=O)[O-])N(CC(O)C(O)C(O)C(O)CO)C(=S)[S][Na].[Na+] [Composition D3, N-(2,3,4,5,6-pentahydroxyhexyl)-(N-disubstitutedsodium formate)-L-sodium methionate]
main component content ([1]; 5 ± 3° C., 0 d (converted to 100%)): 100% | main component content ([1]; 5 ± 3° C., 5 d): 97.3% | main component content ([1]; 5 ± 3° C., 10 d): 96.5% | main component content ([1]; 5 ± 3° C., 30 d): 90.8% | decrease of the main component content / stability on 180 d ([1]; 5±3° C., 180 d): about 18.8% | main component content ([1]; 5±3° C., 180 d): 81.2% | main component content ([1]; 25 ± 2° C./60 ± 5% RH, 0 d (converted to 100%)): 100% | main component content ([1]; 25 ± 2° C./60 ± 5% RH, 5 d): 95.1% | main component content ([1]; 25 ± 2° C./60 ± 5% RH, 10 d): 90.3% | main component content ([1]; 25 ± 2° C./60 ± 5% RH, 30 d): 84.6% | main component content ([1]; 25 ± 2° C./60 ± 5% RH, 180 d): 64.2% | main component content ([1]; 40 ± 2° C./75 ± 5% RH, 0 d (converted to 100%)): 100% | main component content ([1]; 40 ± 2° C./75 ± 5% RH, 5 d): 91.2% | main component content ([1]; 40 ± 2° C./75 ± 5% RH, 10 d): 84.3% | main component content ([1]; 40 ± 2° C./75 ± 5% RH, 30 d): 60.3% | main component content ([1]; −25° C., 0 d (converted to 100%)): 100% | main component content ([1]; −25° C., 5 d): 101.2% | main component content ([1]; −25° C., 10 d): 99.8% | main component content ([1]; −25° C., 30 d): 100.7% | main component content ([1]; −25° C., 180 d): 99.9% | pH ([2]; 2 mg/ml solution in 5% glucose injection): 9.7 | pH ([2]; 2 mg/ml solution in normal saline): 9.7 | main component content in solution ([2]; 5% glucose injection, 0 h (converted to 100%)): 100% | main component content in solution ([2]; 5% glucose injection, 1 h): 90% | main component content in solution ([2]; 5% glucose injection, 2 h): 81% | main component content in solution ([2]; 5% glucose injection, 4 h): 69% | main component content in solution ([2]; 5% glucose injection, 8 h): 54% | main component content in solution ([2]; normal saline, 0 h (converted to 100%)): 100% | main component content in solution ([2]; normal saline, 1 h): 95% | main component content in solution ([2]; normal saline, 2 h): 83% | main component content in solution ([2]; normal saline, 4 h): 73% | main component content in solution ([2]; normal saline, 8 h): 71% | MTD at 14 d [3]: > 3000 mg/kg | acute toxicity observation (SD rats): no obvious toxicity | MTD at 14 d [4]: > 2000 mg/kg | acute toxicity observation (beagles): no obvious toxicity | Removing rate (cadmium in blood) [5, 7]: 13.9% | Removing rate (cadmium in kidney) [5, 7]: 47.8% | Cadmium in blood [5, 8]: 89.45 ± 13.31 µg/L | Cadmium in kidney [5, 8]: 6.53 ± 2.16 µg/L | Removing rate (cadmium in blood) [5, 9]: 6.8% | Removing rate (cadmium in kidney) [5, 9]: 39.7% | Cadmium in blood [5, 10]: 96.60 ± 6.31 µg/L | Cadmium in kidney [5, 10]: 7.42 ± 3.83 µg/L | Removing rate (cadmium in blood) [5, 11]: 16.9% | Removing rate (cadmium in kidney) [5, 11]: 77.0% | Cadmium in blood [5, 12]: 61.39 ± 12.47 µg/L | Cadmium in kidney [5, 12]: 3.36 ± 1.08 µg/L | Removing rate (cadmium in blood) [5, 13]: 0.07% | Removing rate (cadmium in kidney) [5, 13]: 54.0% | Cadmium in blood [5, 14]: 68.54 ± 13.39 µg/L | Cadmium in kidney [5, 14]: 5.92 ± 2.01 µg/L | Removing rate (cadmium in blood) [5, 15]: 35.8% | Removing rate (cadmium in kidney) [5, 15]: 91.7% | Cadmium in blood [5, 16]: 17.67 ± 6.84 µg/L | Cadmium in kidney [5, 16]: 1.85 ± 0.52 µg/L | Removing rate (cadmium in blood) [5, 17]: 11.1% | Removing rate (cadmium in kidney) [5, 17]: 75.8% | Cadmium in blood [5, 18]: 24.34 ± 8.38 µg/L | Cadmium in kidney [5, 18]: 3.93 ± 1.16 µg/L | Urine β2-microglobulin values ([5]; high-dose group (D3 433, compound 3B 83.5, composition 3 and composition 3-preparation 108 mg/kg)): 161.64 ± 45.18 ng/L | Urine β2-microglobulin values ([5]; low-dose group (D3 108, compound 3B 21, composition 3 and composition 3-preparation 27 mg/kg)): 197.15 ± 31.66 ng/L | main component content ([6]; 5 ± 3° C., 0 d (0 day content converted to 100%)): 100% | main component content ([6]; 5 ± 3° C., 5 d): 97.3% | main component content ([6]; 5 ± 3° C., 10 d): 96.5% | main component content ([6]; 25 ± 2° C./60 ± 5% RH, 0 d (0 day content converted to 100%)): 100% | main component content ([6]; 25 ± 2° C./60 ± 5% RH, 5 d): 95.1% | main component content ([6]; 25 ± 2° C./60 ± 5% RH, 10 d): 90.3% | main component content ([6]; 40 ± 2° C./75 ± 5% RH, 0 d (0 day content converted to 100%)): 100% | main component content ([6]; 40 ± 2° C./75 ± 5% RH, 5 d): 91.2% | main component content ([6]; 40 ± 2° C./75 ± 5% RH, 10 d): 84.2% | main component content ([6]; 60° C., 0 d (0 day content converted to 100%)): 100% | main component content ([6]; 60° C., 5 d): 65.6% | main component content ([6]; 60° C., 10 d): 64.2% | main component content ([6]; −25° C., 0 d (0 day content converted to 100%)): 100% | main component content ([6]; −25° C., 5 d): 101.2% | main component content ([6]; −25° C., 10 d): 99.8%
